This is an account of results in patent US20240376073A1 (Hoffmann-La Roche Inc., priority 2021, published 2024).

Where a name gives a salt, the structure may show the parent alone.

For one assay, the system named is Acinetobacter baumannii ATCC17961. Briefly: Antimicrobial susceptibility testing: 90% growth inhibitory concentration (IC90) determination. As to conditions: Acinetobacter baumannii ATCC17961; Iso-Sensitest broth; growth by OD 600 nm over 16 h; 35±2° C.; read-out: ATCC 17961 IC90. The class given is cell-based. A digest of the protocol: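 Twofold serial dilutions (e.g. 50 to 0.097 μM final) in Iso-Sensitest broth, inoculated at ~5×10^(5) CFU/ml, incubated at 35±2° C. OD600 read every 20 min over 16 h; IC90 derived from growth inhibition during logarithmic growth.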
As a reminder, the IC90 is the concentration at which the effect reaches the 90% level. Consider `Cn1c(-c2ccc(OC(F)F)c(F)c2)cnc1C(=O)Nc1ccc(C(=O)N2CCN(C(=O)C[N+](C)(C)C)CC2)c(Cl)c1` [Example B15, [2-[4-[2-chloro-4-[[5-[4-(difluoromethoxy)-3-fluoro-phenyl]-1-methyl-imidazole-2-carbonyl]amino]benzoyl]piperazin-1-yl]-2-oxo-ethyl]-trimethyl-ammonium; formate], for which the 90% effect concentration (IC90) was determined as 140 nM. The same measure, in the same setting: next, `Cn1c(-c2ccc(OC(F)F)c(F)c2F)cnc1C(=O)Nc1ccc(C(=O)N2CCN(C(=O)C3CCN(C(=O)C[N+](C)(C)C)CC3)CC2)c(Cl)c1` [Example B14, [2-[4-[4-[2-chloro-4-[[5-[4-(difluoromethoxy)-2,3-difluoro-phenyl]-1-methyl-imidazole-2-carbonyl]amino]benzoyl]piperazine-1-carbonyl]-1-piperidyl]-2-oxo-ethyl]-trimethyl-ammonium; formate]: 76 nM; `COc1ccc(-c2cnc(C(=O)Nc3ccc(C(=O)N[C@H]4C[C@@H](NCC[N+](C)(C)C)C4)c(Cl)c3)n2C)c(F)c1F` [Example A11, 2-[[3-[[2-chloro-4-[[5-(2,3-difluoro-4-methoxy-phenyl)-1-methyl-imidazole-2-carbonyl]amino]benzoyl]amino]cyclobutyl]amino]ethyl-trimethyl-ammonium; formic acid; formate]: 570 nM; `Cn1c(-c2ccc(OCF)c(F)c2F)cnc1C(=O)Nc1ccc(C(=O)N2CCN(C(=O)C[N+](C)(C)C)CC2)c(Cl)c1` [Example B56, [2-[4-[2-chloro-4-[[5-[2,3-difluoro-4-(fluoromethoxy)phenyl]-1-methyl-imidazole-2-carbonyl]amino]benzoyl]piperazin-1-yl]-2-oxo-ethyl]-trimethyl-ammonium; formate]: 61 nM. On to `CCc1cc(NC(=O)c2ncc(-c3ccc(OC)c(F)c3F)n2C)ccc1C(=O)N1CCN(CCC[N+](C)(C)C)CC1` [Example A6, 3-(4-(4-(5-(2,3-difluoro-4-methoxyphenyl)-1-methyl-1H-imidazole-2-carboxamido)-2-ethylbenzoyl)piperazin-1-yl)-N,N,N-trimethylpropan-1-aminium iodide], for which the IC90 amounted to 1500 nM. As to `COc1ccc(-c2cnc(C(=O)Nc3ccc(C(=O)N4CCC(NC(=O)[C@@H]5C[C@@H](O)C[N+]5(C)C)CC4)c(Cl)c3)n2C)c(F)c1F` [Example C43, N-[3-chloro-4-[4-[[(2S,4R)-4-hydroxy-1,1-dimethyl-pyrrolidin-1-ium-2-carbonyl]amino]piperidine-1-carbonyl]phenyl]-5-(2,3-difluoro-4-methoxy-phenyl)-1-methyl-imidazole-2-carboxamide;formate], the concentration for an effect of 90% (IC90) worked out at 290 nM. Same read-out and setting: next, `Cn1c(-c2ccc(OCC#N)c(F)c2F)cnc1C(=O)Nc1ccc(C(=O)N2CCC(C(=O)N[C@H]3CC[N+](C)(C)C3)CC2)c(Cl)c1` [Example B24, (S)-3-(1-(2-chloro-4-(5-(4-(cyanomethoxy)-2,3-difluorophenyl)-1-methyl-1H-imidazole-2-carboxamido)benzoyl)piperidine-4-carboxamido)-1,1-dimethylpyrrolidin-1-ium formate]: 120 nM; `Cn1c(-c2ccc(OC(F)F)c(F)c2F)cnc1C(=O)Nc1ccc(C(=O)N2CCN(C(=O)C3CC[N+](C)(CC(N)=O)CC3)CC2)c(Cl)c1` (stereo not shown) [Example C2, N-[4-[4-[1-(2-amino-2-oxo-ethyl)-1-methyl-piperidin-1-ium-4-carbonyl]-piperazine-1-carbonyl]-3-chloro-phenyl]-5-[4-(difluoro-methoxy)-2,3-difluoro-phen-yl]-1-methyl-imidazole-2-carboxamide; formate]: 34 nM; `CCc1cc(NC(=O)c2ncc(-c3ccc(OC(F)F)c(F)c3F)n2C)ccc1C(=O)N1CCN(C(=O)C2CC[N+](CC(N)=O)(CC3CNC3)CC2)CC1` (stereo not shown) [Example C21]: 220 nM. Consider `COc1ccc(-c2cnc(C(=O)Nc3ccc(C(=O)N4CCC(C(=O)NCc5cnc(NC(=O)C6CC[N+](C)(C)CC6)s5)CC4)c(Cl)c3)n2C)c(F)c1F` [Example A31, N-[5-[[1-[2-chloro-4-[[5-(2,3-difluoro-4-methoxy-phenyl)-1-methyl-imidazole-2-carbonyl]amino]benzoyl]piperidine-4-carbonyl]amino]methyl]thiazol-2-yl]-1,1-dimethyl-piperidin-1-ium-4-carboxamide; formate], for which the 90% effect concentration (IC90) stood at 170 nM. Consider `COc1ccc(-c2cnc(C(=O)Nc3ccc(C(=O)N4CCN(C(=O)C[N+]5(C)CCCC5)CC4)c(Cl)c3)n2C)c(F)c1F` [Example C28, N-[3-chloro-4-[4-[2-(1-methylpyr-rolidin-1-ium-1-yl)acetyl]piper-azine-1-carbonyl]-phenyl]-5-(2,3-difluoro-4-meth-oxy-phenyl)-1-methyl-imidazole-2-carboxamide; formate], for which the IC90 worked out at 130 nM.

As to `COc1ccc(-c2cnc(C(=O)Nc3ccc(C(=O)N4CCN(C(=O)CC[N+](C)(C)CC(N)=O)CC4)c(C)c3)n2C)c(F)c1F` [Example B3, (2-amino-2-oxo-ethyl)-[3-[4-[4-[[5-(2,3-difluoro-4-methoxy-phenyl)-1-methyl-imidazole-2-carbonyl]amino]-2-methyl-benzoyl]piperazin-1-yl]-3-oxo-propyl]-dimethyl-ammonium; 2,2,2-trifluoroacetate], the 90% effect concentration (IC90) was 190 nM. For `COc1ccc(-c2cnc(C(=O)Nc3ccc(C(=O)N4CC(NC(=O)C5CC[N+](C)(C)CC5)C4)c(Cl)c3)n2C)c(F)c1F` [Example B17, N-[1-[2-chloro-4-[[5-(2,3-difluoro-4-methoxy-phenyl)-1-methyl-imidazole-2-carbonyl]amino]benzoyl]azetidin-3-yl]-1,1-dimethyl-piperidin-1-ium-4-carboxamide; formate], the concentration for an effect of 90% (IC90) was found to be 250 nM.

Take `Cc1cc(NC(=O)c2ncc(-c3ccc(OCC#N)c(F)c3F)n2C)ccc1C(=O)N1CCN(C(=O)C[N+](C)(C)CC(N)=O)CC1` [Example B2, (2-amino-2-oxo-ethyl)-[2-[4-[4-[[5-[4-(cyanomethoxy)-2,3-difluoro-phenyl]-1-methyl-imidazole-2-carbonyl]amino]-2-methyl-benzoyl]piperazin-1-yl]-2-oxo-ethyl]-dimethyl-mmonium; formate]: the IC90 is 230 nM. For the compound `COc1ccc(-c2cnc(C(=O)Nc3ccc(C(=O)NCc4cn(CCOCCO)[n+](C)c4)c(Cl)c3)n2C)c(F)c1F` [Example A26, N-[3-chloro-4-[1-[2-(2-hydroxyethoxy)ethyl]-2-methyl-pyrazol-2-ium-4-yl]methylcarbamoyl]phenyl]-5-(2,3-difluoro-4-methoxy-phenyl)-1-methyl-imidazole-2-carboxamide; formate], the IC90 stood at 410 nM. Still for that read-out and setting: next, `CCc1cc(NC(=O)c2ncc(-c3ccc(OC(F)F)c(F)c3F)n2C)ccc1C(=O)N1CCN(C(=O)C2CC[N+](C)(CC3CCNCC3)CC2)CC1` (stereo not shown) [Example C20, 5-[4-(difluoro-methoxy)-2,3-difluoro-phenyl]-N-[3-ethyl-4-[4-[1-methyl-1-(4-piperidylmethyl)-piperidin-1-ium-4-carbonyl]-piperazine-1-carbonyl]phenyl]-1-methyl-imid-azole-2-carbox-amide; 2,2,2-trifluoroacetate; 2,2,2-trifluoro-acetic acid]: 80 nM.

Staying with this assay, now noted: Acinetobacter baumannii, ATCC17961, 16 h, read-out: ATCC 17961 IC90, Acinetobacter baumannii ATCC17961; Iso-Sensitest broth; growth by OD 600 nm over 16 h; 35±2° C.
As for `COc1ccc(-c2cnc(C(=O)Nc3ccc(C(=O)N4CCN(C(=O)[C@@H]5[C@H](O)CC[N+]5(C)C)CC4)c(Cl)c3)n2C)c(F)c1F` [Example B44, N-[3-chloro-4-[4-[(2S,3R)-3-hydroxy-1,1-dimethyl-pyrrolidin-1-ium-2-carbonyl]piperazine-1-carbonyl]phenyl]-5-(2,3-difluoro-4-methoxy-phenyl)-1-methyl-imidazole-2-carboxamide; formate], the 90% effect concentration (IC90) turned out to be 420 nM. Turning to `Cn1c(-c2ccc(OCF)c(F)c2F)cnc1C(=O)Nc1ccc(C(=O)N2CCN(C(=O)[C@@H]3C[C@@H](O)C[N+]3(C)C)CC2)c(Cl)c1` [Example B45, N-[3-chloro-4-[4-[(2S,4R)-4-hydroxy-1,1-dimethyl-pyrrolidin-1-ium-2-carbonyl]piperazine-1-carbonyl]phenyl]-5-[2,3-difluoro-4-(fluoromethoxy)phenyl]-1-methyl-imidazole-2-carboxamide; formate], the IC90 stood at 93 nM. Regarding `Cn1c(-c2ccc(OC(F)F)c(F)c2Cl)cnc1C(=O)Nc1ccc(C(=O)N2CCN(C(=O)C3CC[N+](CC(N)=O)(CC4CNC4)CC3)CC2)c(Cl)c1` (stereo not shown) [Example C10], the IC90 is 100 nM.

In the case of `Cn1c(-c2ccc(OCC#N)c(F)c2F)cnc1C(=O)Nc1ccc(C(=O)N2CCN(C(=O)C[N+](C)(C)C)CC2)c(Cl)c1` [Example A7, [2-[4-[2-chloro-4-[[5-[4-(cyanomethoxy)-2,3-difluoro-phenyl]-1-methyl-imidazole-2-carbonyl]amino]benzoyl]piperazin-1-yl]-2-oxo-ethyl]-trimethyl-ammonium; formate; iodide], the IC90 is 93 nM.

Regarding `Cn1c(-c2ccc(OC(F)F)c(F)c2F)cnc1C(=O)Nc1ccc(C(=O)N2CCN(C(=O)[C@@H]3C[C@@H](O)C[N+]3(C)C)CC2)c(Cl)c1` [Example B41, N-[3-chloro-4-[4-[(2S,4R)-4-hydroxy-1,1-dimethyl-pyrrolidin-1-ium-2-carbonyl]piperazine-1-carbonyl]phenyl]-5-[4-(difluoromethoxy)-2,3-difluoro-phenyl]-1-methyl-imidazole-2-carboxamide; formate], the concentration for an effect of 90% (IC90) was 76 nM. On to `COc1ccc(-c2cnc(C(=O)Nc3ccc(C(=O)N4CCN(C(=O)C5CC[N+](CCCN)(CC(=O)O)CC5)CC4)c(Cl)c3)n2C)c(F)c1F` (stereo not shown) [Example C32, 2-[1-(3-aminopropyl)-4-[4-[2-chloro-4-[[5-(2,3-difluoro-4-methoxy-phenyl)-1-methyl-imidazole-2-carbonyl]amino]benzoyl]piperazine-1-carbonyl]piperidin-1-ium-1-yl]acetic acid; formate], for which the IC90 amounted to 810 nM.
